Measurements reported in patent US8937048B2, “Anti-angiogenic compounds” (Covx Technologies Ireland, Limited, priority 2008, dated 2015).
Where a SMILES comes first, the peptide text is derived from it. Bridges are numbered along the chain shown (N, C = ends). [ ]: non-standard residue; d: D form.

Target: T1, recombinant human VEGF165 (Homo sapiens, UniProt P15692)
T1 sequence (P15692 27-191 isoform P15692-4): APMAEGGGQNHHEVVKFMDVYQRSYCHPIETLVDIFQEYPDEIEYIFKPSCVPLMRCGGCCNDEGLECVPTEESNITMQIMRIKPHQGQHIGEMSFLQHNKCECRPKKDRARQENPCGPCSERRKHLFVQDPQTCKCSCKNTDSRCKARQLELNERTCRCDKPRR
Experiment: VEGF peptide binding assay (competition ELISA, VEGF165 binding to coated VEGFR2/Fc)
Method: High-binding half-well 96-well plates (Costar #3690) were coated with recombinant human VEGFR2/Fc (50 ng/well) in 50 μl PBS, and incubated at 4° C. overnight. After washing the plates three times with 1× washing buffer (KPL Cat#50-65-00) and blocking with Superblock (Scytek #AAA500) at room temperature (RT) for 1 hour, VEGF-peptides of the invention were serially diluted (concentrations: 0.128-10,000 nM) in the presence of 25 ng/ml of recombinant human VEGF165 in […] Superblock, and were then added to the 96-well plates and incubated at RT for 1 hour. Peptides of the invention tested in this fashion were all capped at the amino terminus with a C(O)CH3 group and at the carboxyl terminus with a NH2 group. The plates were then washed three times with washing buffer, and a diluted (1:500) biotinylated anti-human VEGF antibody (R&D systems, Cat# BAF293) was added and incubated at RT for 2 hours. After washing the plates, streptavidin HRP conjugate (1:200 in Superblock) (R&D systems, Cat# DY998) was added to detect the bound anti-VEGF antibody, followed by addition of tetramethylbenzidine (TMB) substrate (Pierce, Cat#34021) for color development. The reaction was stopped with 2 M H2SO4. OD450 was measured using SpectraMax (Molecular Device) with a correction wavelength of 540 nm. The data were analyzed using Prism software. OD450 values were plotted as a function of the concentrations of the VEGF peptides. IC50 values, indicative of the potency of the VEGF peptides to inhibit VEGF-VEGFR2 interaction, were obtained using a sigmoid dose-response curve fit in Prism.

Compound	IC50
CC[C@H](C)[C@@H]1NC(=O)[C@H](CC(=O)O)NC(=O)[C@@H](NC(=O)[C@H](CC(N)=O)NC(=O)[C@@H]2CCCN2C(=O)[C@H](CCC(=O)O)NC(=O)[C@@H](NC(C)=O)C(C)C)CSSC[C@@H](C(=O)N[C@@H](Cc2ccccc2)C(=O)N[C@@H](CCC(=O)O)C(=O)N[C@@H](CCCNC(=N)N)C(=O)N[C@@H](CC(C)C)C(=O)N[C@@H](Cc2ccccc2)C(=O)N[C@@H](CCCCN)C(=O)N[C@@H](CCC(=O)O)C(=O)N[C@@H](C)C(N)=O)NC(=O)[C@H](CCC(=O)O)NC(=O)[C@H](Cc2c[nH]c3ccccc23)NC(=O)[C@H](C(C)C)NC(=O)[C@H](Cc2c[nH]c3ccccc23)NC(=O)[C@H](CCSC)NC(=O)[C@H](C(C)C)NC(=O)[C@H](Cc2c[nH]cn2)NC1=O [Compound 53, VEPNCDIHVMWVWECFERLFKEA] (Ac-VEPNCDIHVMWVWECFERLFKEA-NH2; disulfide 5-15 (inferred))	31.4 nM
CC[C@H](C)[C@H](NC(=O)CNC(=O)[C@H](Cc1ccc(O)cc1)NC(=O)[C@H](CC(C)C)NC(=O)[C@H](CCCNC(=N)N)NC(=O)[C@H](CCC(=O)O)NC(=O)[C@H](Cc1ccccc1)NC(=O)[C@@H]1CSSC[C@H](NC(=O)[C@H](CC(N)=O)NC(=O)[C@@H]2CCCN2C(=O)[C@H](CCC(=O)O)NC(=O)[C@@H](NC(C)=O)C(C)C)C(=O)N[C@@H](CC(=O)O)C(=O)N[C@@H]([C@@H](C)CC)C(=O)N[C@@H](Cc2c[nH]cn2)C(=O)N[C@@H](C(C)C)C(=O)N[C@@H](CCSC)C(=O)N[C@@H](Cc2c[nH]c3ccccc23)C(=O)N[C@@H](C(C)C)C(=O)N[C@@H](Cc2c[nH]c3ccccc23)C(=O)N[C@@H](CCC(=O)O)C(=O)N1)C(=O)N[C@@H](Cc1ccccc1)C(N)=O [Compound 40, VEPNCDIHVMWVWECFERLYGIF] (Ac-VEPNCDIHVMWVWECFERLYGIF-NH2; disulfide 5-15 (inferred))	78.3 nM
CC[C@H](C)[C@@H]1NC(=O)[C@H](CC(=O)O)NC(=O)[C@@H](NC(=O)[C@H](CC(N)=O)NC(=O)[C@@H]2CCCN2C(=O)[C@H](CCC(=O)O)NC(=O)[C@@H](NC(C)=O)C(C)C)CSSC[C@@H](C(=O)N[C@@H](Cc2ccccc2)C(=O)N[C@@H](CCC(=O)O)C(=O)N[C@@H](CCCNC(=N)N)C(=O)N[C@@H](CC(C)C)C(=O)N[C@H](CC(C)C)C(=O)N[C@@H](CCCCNC(C)=O)C(N)=O)NC(=O)[C@H](CCC(=O)O)NC(=O)[C@H](Cc2c[nH]c3ccccc23)NC(=O)[C@H](C(C)C)NC(=O)[C@H](Cc2c[nH]c3ccccc23)NC(=O)[C@H](CCSC)NC(=O)[C@H](C(C)C)NC(=O)[C@H](Cc2c[nH]cn2)NC1=O [Compound 60, V-E-P-N-C-D-I-H-V-M-W-V-W-E-C-F-E-R-L-(D-Leu)-(Kac)] (Ac-VEPNCDIHVMWVWECFERL[dL]K(Ac)-NH2; disulfide 5-15 (inferred))	25 nM
CC[C@H](C)[C@@H]1NC(=O)[C@H](CC(=O)O)NC(=O)[C@@H](NC(=O)[C@H](CC(N)=O)NC(=O)[C@@H]2CCCN2C(=O)[C@H](CCC(=O)O)NC(=O)[C@@H](NC(C)=O)C(C)C)CSSC[C@@H](C(=O)N[C@@H](Cc2ccccc2)C(=O)N[C@@H](CCC(=O)O)C(=O)N[C@@H](CCCNC(=N)N)C(=O)N[C@@H](CC(C)C)C(=O)N[C@@H](Cc2ccc(O)cc2)C(=O)NCC(=O)N2CCC[C@H]2C(=O)N[C@@H](CC(C)C)C(N)=O)NC(=O)[C@H](CCC(=O)O)NC(=O)[C@H](Cc2c[nH]c3ccccc23)NC(=O)[C@H](C(C)C)NC(=O)[C@H](Cc2c[nH]c3ccccc23)NC(=O)[C@H](CCSC)NC(=O)[C@H](C(C)C)NC(=O)[C@H](Cc2c[nH]cn2)NC1=O [Compound 76, VEPNCDIHVMWVWECFERLYGPL] (Ac-VEPNCDIHVMWVWECFERLYGPL-NH2; disulfide 5-15 (inferred))	2.3 nM
CC[C@H](C)[C@@H]1NC(=O)[C@H](CC(=O)O)NC(=O)[C@@H](NC(=O)[C@H](CC(N)=O)NC(=O)[C@@H]2CCCN2C(=O)[C@H](CCC(=O)O)NC(=O)[C@@H](NC(C)=O)C(C)C)CSSC[C@@H](C(=O)N[C@@H](Cc2ccccc2)C(=O)N[C@@H](CCC(=O)O)C(=O)N[C@@H](CCCNC(=N)N)C(=O)N[C@@H](CC(C)C)C(=O)N[C@@H](Cc2ccc(O)cc2)C(=O)NCC(=O)N[C@@H](Cc2c[nH]c3ccccc23)C(=O)NCC(N)=O)NC(=O)[C@H](CCC(=O)O)NC(=O)[C@H](Cc2c[nH]c3ccccc23)NC(=O)[C@H](C(C)C)NC(=O)[C@H](Cc2c[nH]c3ccccc23)NC(=O)[C@H](CCSC)NC(=O)[C@H](C(C)C)NC(=O)[C@H](Cc2c[nH]cn2)NC1=O [Compound 42, VEPNCDIHVMWVWECFERLYGWG] (Ac-VEPNCDIHVMWVWECFERLYGWG-NH2; disulfide 5-15 (inferred))	68.2 nM
CC[C@H](C)[C@@H]1NC(=O)[C@H](CC(=O)O)NC(=O)[C@@H](NC(=O)[C@H](CC(N)=O)NC(=O)[C@@H]2CCCN2C(=O)[C@H](CCC(=O)O)NC(=O)[C@@H](NC(C)=O)C(C)C)CSSC[C@@H](C(=O)N[C@@H](Cc2ccccc2)C(=O)N[C@@H](CCC(=O)O)C(=O)N[C@@H](CCCNC(=N)N)C(=O)N[C@@H](CC(C)C)C(=O)N[C@@H](Cc2ccc(O)cc2)C(=O)N[C@@H](CCCCN)C(N)=O)NC(=O)[C@H](CCC(=O)O)NC(=O)[C@H](Cc2c[nH]c3ccccc23)NC(=O)[C@H](C(C)C)NC(=O)[C@H](Cc2c[nH]c3ccccc23)NC(=O)[C@H](CCSC)NC(=O)[C@H](C(C)C)NC(=O)[C@H](Cc2c[nH]cn2)NC1=O [Compound 58, VEPNCDIHVMWVWECFERLYK] (Ac-VEPNCDIHVMWVWECFERLYK-NH2; disulfide 5-15 (inferred))	25.1 nM
CC[C@H](C)[C@H](NC(=O)[C@H](CC(C)C)NC(=O)[C@H](CCCNC(=N)N)NC(=O)[C@H](CCC(=O)O)NC(=O)[C@H](Cc1ccccc1)NC(=O)[C@@H]1CSSC[C@H](NC(=O)[C@H](CC(N)=O)NC(=O)[C@@H]2CCCN2C(=O)[C@H](CCC(=O)O)NC(=O)[C@@H](NC(C)=O)C(C)C)C(=O)N[C@@H](CC(=O)O)C(=O)N[C@@H]([C@@H](C)CC)C(=O)N[C@@H](Cc2c[nH]cn2)C(=O)N[C@@H](C(C)C)C(=O)N[C@@H](CCSC)C(=O)N[C@@H](Cc2c[nH]c3ccccc23)C(=O)N[C@@H](C(C)C)C(=O)N[C@@H](Cc2c[nH]c3ccccc23)C(=O)N[C@@H](CCC(=O)O)C(=O)N1)C(=O)N[C@@H](CCCCN)C(N)=O [Compound 57, VEPNCDIHVMWVWECFERLIK] (Ac-VEPNCDIHVMWVWECFERLIK-NH2; disulfide 5-15 (inferred))	25.4 nM
CC[C@H](C)[C@@H]1NC(=O)[C@H](CC(=O)O)NC(=O)[C@@H](NC(=O)[C@H](CC(N)=O)NC(=O)[C@@H]2CCCN2C(=O)[C@H](CCC(=O)O)NC(=O)[C@@H](NC(C)=O)C(C)C)CSSC[C@@H](C(=O)N[C@@H](Cc2ccccc2)C(=O)N[C@@H](CCC(=O)O)C(=O)N[C@@H](CCCNC(=N)N)C(=O)N[C@@H](CC(C)C)C(=O)N[C@@H](Cc2ccc(O)cc2)C(=O)NCC(=O)N[C@@H](CC(C)C)C(=O)N[C@@H](Cc2ccc(O)cc2)C(N)=O)NC(=O)[C@H](CCC(=O)O)NC(=O)[C@H](Cc2c[nH]c3ccccc23)NC(=O)[C@H](C(C)C)NC(=O)[C@H](Cc2c[nH]c3ccccc23)NC(=O)[C@H](CCSC)NC(=O)[C@H](C(C)C)NC(=O)[C@H](Cc2c[nH]cn2)NC1=O [Compound 44, VEPNCDIHVMWVWECFERLYGLY] (Ac-VEPNCDIHVMWVWECFERLYGLY-NH2; disulfide 5-15 (inferred))	54.6 nM
CC[C@H](C)[C@@H]1NC(=O)[C@H](CC(=O)O)NC(=O)[C@@H](NC(=O)[C@H](CC(N)=O)NC(=O)[C@@H]2CCCN2C(=O)[C@H](CCC(=O)O)NC(=O)[C@@H](NC(C)=O)C(C)C)CSSC[C@@H](C(=O)N[C@@H](Cc2ccccc2)C(=O)N[C@@H](CCC(=O)O)C(=O)N[C@@H](CCCNC(=N)N)C(=O)N[C@@H](CC(C)C)C(=O)N[C@@H](CO)C(=O)NCC(=O)NCC(=O)NCC(N)=O)NC(=O)[C@H](CCC(=O)O)NC(=O)[C@H](Cc2c[nH]c3ccccc23)NC(=O)[C@H](C(C)C)NC(=O)[C@H](Cc2c[nH]c3ccccc23)NC(=O)[C@H](CCSC)NC(=O)[C@H](C(C)C)NC(=O)[C@H](Cc2c[nH]cn2)NC1=O [Compound 45, VEPNCDIHVMWVWECFERLSGGG] (Ac-VEPNCDIHVMWVWECFERLSGGG-NH2; disulfide 5-15 (inferred))	51 nM
